In patent US20050070510A1, “Substituted tetracycline compounds as synergistic antifungal agents” (Paratek Pharmaceuticals, Inc., priority 2001, published 2005):

tested on: COS-1 cells; assay: In vitro mammalian cytotoxicity assay (Resazurin)

Structure (SMILES)	In Vitro Cytotoxicity
CN(C)c1cc(CNC(=O)Nc2ccccc2)c(O)c2c1C[C@@]1(N)C[C@@]3(N)[C@H](N(C)C)C(O)=C(C(N)=O)C(=O)[C@@]3(C#N)C(O)=C1C2=O [ME]	* (toxicities greater than >25 μg/ml are represented by *)
CN(C)[C@@H]1C(O)=C(C(N)=O)C(=O)[C@@]2(C#N)C(O)=C3C(=O)c4c(O)ccc(I)c4[C@H](N)[C@@]3(N)[C@H](O)[C@@]12N [CL]	** (toxicities less than 25 μg/mL are represented by **)
CN(C)c1cc(CN(Cc2ccn[nH]2)Cc2ccn[nH]2)c(O)c2c1C[C@@]1(N)C[C@@]3(N)[C@H](N(C)C)C(O)=C(C(N)=O)C(=O)[C@@]3(C#N)C(O)=C1C2=O [TA]	* (toxicities greater than >25 μg/ml are represented by *)
COc1cccc(C#Cc2ccc(O)c3c2C[C@@]2(N)C[C@@]4(N)[C@H](N(C)C)C(O)=C(C(N)=O)C(=O)[C@@]4(C#N)C(O)=C2C3=O)c1 [GU]	** (toxicities less than 25 μg/mL are represented by **)
CN(C)c1cc(-c2ccoc2)c(O)c2c1C[C@@]1(N)C[C@@]3(N)[C@H](N(C)C)C(O)=C(C(N)=O)C(=O)[C@@]3(C#N)C(O)=C1C2=O [SN]	** (toxicities less than 25 μg/mL are represented by **)
CN(C)[C@@H]1C(O)=C(C(N)=O)C(=O)[C@@]2(C#N)C(O)=C3C(=O)c4c(O)ccc(-c5ccc(NC(=O)CNC(C)(C)C)cc5)c4C[C@@]3(N)C[C@@]12N [UZ]	** (toxicities less than 25 μg/mL are represented by **)
CN(C)[C@@H]1C(O)=C(C(N)=O)C(=O)[C@@]2(C#N)C(O)=C3C(=O)c4c(O)ccc(-c5ccc(I)cc5)c4C[C@@]3(N)C[C@@]12N [CW]	** (toxicities less than 25 μg/mL are represented by **)
CCCC/C(Cl)=C/c1ccc(O)c2c1C[C@@]1(N)C[C@@]3(N)[C@H](N(C)C)C(O)=C(C(N)=O)C(=O)[C@@]3(C#N)C(O)=C1C2=O [IH]	** (toxicities less than 25 μg/mL are represented by **)
CN(C)[C@@H]1C(O)=C(C(N)=O)C(=O)[C@@]2(C#N)C(O)=C3C(=O)c4c(O)c(C(C)(C)C)cc(-c5cccc([N+](=O)O)c5)c4C[C@@]3(N)C[C@@]12N [KS]	** (toxicities less than 25 μg/mL are represented by **)
CN(C)c1cc(-c2cccc([N+](=O)O)c2)c(O)c2c1C[C@@]1(N)C[C@@]3(N)[C@H](N(C)C)C(O)=C(C(N)=O)C(=O)[C@@]3(C#N)C(O)=C1C2=O [EG]	** (toxicities less than 25 μg/mL are represented by **)
CN(C)[C@@H]1C(O)=C(C(N)=O)C(=O)[C@@]2(C#N)C(O)=C3C(=O)c4c(O)c(C(C)(C)C)cc(-c5ccc6c(c5)OCO6)c4C[C@@]3(N)C[C@@]12N [NT]	** (toxicities less than 25 μg/mL are represented by **)
Cc1ccc(CCc2ccc(O)c3c2CC2CC4[C@H](N(C)C)C(O)=C(C(N)=O)C(=O)[C@@]4(O)C(O)=C2C3=O)cc1 (stereo partly drawn) [Compound HG]	** (toxicities less than 25 μg/mL are represented by **)
CN(C)[C@@H]1C(O)=C(C(N)=O)C(=O)[C@@]2(C#N)C(O)=C3C(=O)c4c(O)ccc(-c5cccnc5)c4C[C@@]3(N)C[C@@]12N [UL]	** (toxicities less than 25 μg/mL are represented by **)
CN(C)c1cc(-c2ccc(F)cc2F)c(O)c2c1C[C@@]1(N)C[C@@]3(N)[C@H](N(C)C)C(O)=C(C(N)=O)C(=O)[C@@]3(C#N)C(O)=C1C2=O [EX]	** (toxicities less than 25 μg/mL are represented by **)
CCOc1ccc(-c2ccc(O)c3c2C[C@@]2(N)C[C@@]4(N)C(N(C)C)C(O)=C(C(N)=O)C(=O)[C@@]4(C#N)C(O)=C2C3=O)cc1CNC(=O)C(F)(F)F (stereo partly drawn) [QQ]	* (toxicities greater than >25 μg/ml are represented by *)
CN(C)c1cc(CCC2(O)CCCC2)c(O)c2c1C[C@@]1(N)C[C@@]3(N)[C@H](N(C)C)C(O)=C(C(N)=O)C(=O)[C@@]3(C#N)C(O)=C1C2=O [PW]	** (toxicities less than 25 μg/mL are represented by **)
CN(C)c1cc(NCc2ccc([N+](=O)O)cc2)c(O)c2c1C[C@@]1(N)C[C@@]3(N)[C@H](N(C)C)C(O)=C(C(N)=O)C(=O)[C@@]3(C#N)C(O)=C1C2=O [VH]	** (toxicities less than 25 μg/mL are represented by **)
CN(C)CC(=O)NCc1ccc(-c2ccc(O)c3c2C[C@@]2(N)C[C@@]4(N)[C@H](N(C)C)C(O)=C(C(N)=O)C(=O)[C@@]4(C#N)C(O)=C2C3=O)cc1 [NY]	** (toxicities less than 25 μg/mL are represented by **)
CN(C)c1cc(CNCCc2ccccc2)c(O)c2c1C[C@@]1(N)C[C@@]3(N)[C@H](N(C)C)C(O)=C(C(N)=O)C(=O)[C@@]3(C#N)C(O)=C1C2=O [LX]	* (toxicities greater than >25 μg/ml are represented by *)
CN(C)[C@@H]1C(O)=C(C(N)=O)C(=O)[C@@]2(C#N)C(O)=C3C(=O)c4c(O)c(CN)cc(-c5cccc([N+](=O)O)c5)c4C[C@@]3(N)C[C@@]12N [KB]	** (toxicities less than 25 μg/mL are represented by **)

Structure (SMILES)	In Vitro Cytotoxicity
CN(C)[C@@H]1C(O)=C(C(N)=O)C(=O)[C@@]2(C#N)C(O)=C3C(=O)c4c(O)cccc4[C@H](N)[C@@]3(N)[C@H](OC(=O)Nc3ccc(O)cc3[N+](=O)O)[C@@]12N [BN]	* (toxicities greater than >25 μg/ml are represented by *)
CCOc1ccc(/C=C2\c3cccc(O)c3C(=O)C3=C(O)[C@]4(C#N)C(=O)C(C(N)=O)=C(O)[C@@H](N(C)C)[C@]4(N)[C@@H](O)[C@@]32N)cc1 [DF]	** (toxicities less than 25 μg/mL are represented by **)
CN(C)[C@@H]1C(O)=C(C(N)=O)C(=O)[C@@]2(C#N)C(O)=C3C(=O)c4c(O)ccc(C5CCCC5)c4C[C@@]3(N)C[C@@]12N [JB]	** (toxicities less than 25 μg/mL are represented by **)
CN(C)[C@@H]1C(O)=C(C(N)=O)C(=O)[C@@]2(C#N)C(O)=C3C(=O)c4c(O)ccc(-c5ccc(CN6CCCC6)c6ccccc56)c4C[C@@]3(N)C[C@@]12N [OO]	** (toxicities less than 25 μg/mL are represented by **)
CN(C)[C@@H]1C(O)=C(C(N)=O)C(=O)[C@@]2(C#N)C(O)=C3C(=O)c4c(O)ccc(C#Cc5ccccc5)c4C[C@@]3(N)C[C@@]12N [FB]	** (toxicities less than 25 μg/mL are represented by **)
CN(C)[C@@H]1C(O)=C(C(N)=O)C(=O)[C@@]2(C#N)C(O)=C3C(=O)c4c(ccc(Nc5nc(-c6cccc([N+](=O)O)c6)cs5)c4O)C[C@@]3(N)C[C@@]12N [ED]	** (toxicities less than 25 μg/mL are represented by **)
CN(C)c1cc(CNC(=O)c2ccco2)c(O)c2c1C[C@@]1(N)C[C@@]3(N)[C@H](N(C)C)C(O)=C(C(N)=O)C(=O)[C@@]3(C#N)C(O)=C1C2=O [SW]	* (toxicities greater than >25 μg/ml are represented by *)
COc1cc(C/C=C\c2ccc(O)c3c2C[C@@]2(N)C[C@@]4(N)[C@H](N(C)C)C(O)=C(C(N)=O)C(=O)[C@@]4(C#N)C(O)=C2C3=O)ccc1O [HW]	** (toxicities less than 25 μg/mL are represented by **)
CN(C)[C@@H]1C(O)=C(C(N)=O)C(=O)[C@@]2(C#N)C(O)=C3C(=O)c4c(O)ccc(-c5ccc(NC(=O)NCCCCl)cc5)c4C[C@@]3(N)C[C@@]12N [US]	** (toxicities less than 25 μg/mL are represented by **)
CN(C)[C@@H]1C(O)=C(C(N)=O)C(=O)[C@@]2(C#N)C(O)=C3C(=O)c4c(O)ccc(-c5ccc(CNc6cccnc6)cc5)c4C[C@@]3(N)C[C@@]12N [UO]	** (toxicities less than 25 μg/mL are represented by **)
CN(C)c1ccc(-c2cc(CN)c(O)c3c2C[C@@]2(N)C[C@@]4(N)[C@H](N(C)C)C(O)=C(C(N)=O)C(=O)[C@@]4(C#N)C(O)=C2C3=O)cc1 [QN]	* (toxicities greater than >25 μg/ml are represented by *)
CN(C)[C@@H]1C(O)=C(C(N)=O)C(=O)[C@@]2(C#N)C(O)=C3C(=O)c4c(O)c(-c5ccc6c(c5)OCO6)cc(-c5ccc6c(c5)OCO6)c4C[C@@]3(N)C[C@@]12N [LP]	** (toxicities less than 25 μg/mL are represented by **)
CN(C)[C@@H]1C(O)=C(C(N)=O)C(=O)[C@@]2(C#N)C(O)=C3C(=O)c4c(O)ccc(C#Cc5ccccc5F)c4C[C@@]3(N)C[C@@]12N [GH]	** (toxicities less than 25 μg/mL are represented by **)
CCc1cc(C(C)(C)C)c(O)c2c1C[C@@]1(N)C[C@@]3(N)[C@H](N(C)C)C(O)=C(C(=O)NC(C)(C)C)C(=O)[C@@]3(C#N)C(O)=C1C2=O [LE]	** (toxicities less than 25 μg/mL are represented by **)
CCOC(=O)C(C)(/N=N/c1ccc2c(c1O)C(=O)C1=C(O)[C@]3(C#N)C(=O)C(C(N)=O)=C(O)[C@@H](N(C)C)[C@]3(N)[C@@H](O)[C@]1(N)[C@H]2N)C(=O)OCC [DK]	** (toxicities less than 25 μg/mL are represented by **)
CN(C)[C@@H]1C(O)=C(C(=O)NC(C)(C)C)C(=O)[C@@]2(C#N)C(O)=C3C(=O)c4c(O)cccc4C(N)[C@@]3(N)[C@H](O)[C@@]12N (stereo partly drawn) [DA]	* (toxicities greater than >25 μg/ml are represented by *)
CCOC(=O)CNCc1ccc(-c2ccc(O)c3c2C[C@@]2(N)C[C@@]4(N)[C@H](N(C)C)C(O)=C(C(N)=O)C(=O)[C@@]4(C#N)C(O)=C2C3=O)c2ccccc12 [OQ]	** (toxicities less than 25 μg/mL are represented by **)
CCC(NCc1cc(N(C)C)c2c(c1O)C(=O)C1=C(O)[C@]3(C#N)C(=O)C(C(N)=O)=C(O)[C@@H](N(C)C)[C@]3(N)C[C@]1(N)C2)C(F)(F)F (stereo partly drawn) [UM]	** (toxicities less than 25 μg/mL are represented by **)
CCCCc1cc(CN)c(O)c2c1C[C@@]1(N)C[C@@]3(N)[C@H](N(C)C)C(O)=C(C(N)=O)C(=O)[C@@]3(C#N)C(O)=C1C2=O [KV]	* (toxicities greater than >25 μg/ml are represented by *)
